According to US10004786B2 (Zealand Pharma A/S, priority 2009, dated 2018):
Numbered stars: 1 amine (or outer) side, 2 acyl side, 3 side chain; on linkers, the order of the positions; unused ones are H or OH. Bridge positions count the residues as written; N and C are the ends. Square brackets hold non-standard residues; d marks the D form. Side chains are listed from the residue outwards. Peptide text beside a SMILES is read from it. * marks the point of attachment. γGlu = O=C(O)[C@H](CCC(=O)[*:2])N[*:1]; Palmitoyl = CCCCCCCCCCCCCCCC(=O)*; Aib = CC(C)(N)C(=O)O

Experiments:
[1] = Body weight gain in high fat fed C57BL/6J mice (10 days); format: in vivo; conditions: short term high fat-fed C57BL/6J mice; for body weight gain, high dose: 5 nmol/kg b.i.d. s.c.
Method: C57Bl/6J male mice, 6 weeks old, were acclimatized in their new environment for 4 weeks with free access to high fat diet (HFD) (D12492, Research Diet Inc., New Brunswick, USA) and water. The animals were injected s.c. with 100 μl vehicle for a period of three days to acclimatize the animals to handling and injections, prior to initiation of peptide treatment. […] Throughout the study, body weights were recorded daily and used to administer the body weight-corrected doses of peptide. All animals were sacrificed on the same day by cervical dislocation.
C57Bl/6J male mice on high fat diet (HFD) were treated (b.i.d.; s.c.) (0.5 and 5 nmol/kg) or vehicle. Body weights were recorded daily and used to administer the body weight-corrected doses of peptide throughout the study. Data are shown as mean±SEM in FIG. 7.

[2] = Pharmacokinetic screening in mouse plasma after subcutaneous administration; format: in vivo; conditions: sc, mice, 100 nmol/kg s.c., * = only two time points used for calculation
Method: Mice were dosed 100 nmol/kg subcutaneously (s.c.). The mice were sacrificed and the blood collected at the following time points; 0.5, 2, 4, 6, 16 and 24 h. Plasma samples were analyzed using protein precipitation, followed by solid phase extraction (SPE) and liquid chromatography mass spectrometry (LC-MS).
Pharmacokinetic profiles were determined for various acylated compounds.

SMILES	half-life [2]	body weight gain, low dose ([1]; 0.5 nmol/kg b.i.d. s.c.)	body weight gain, high dose [1]
CCCCCCCCCCCCCCCC(=O)N[C@@H](CCC(=O)NCCCC[C@H](NC(=O)[C@H](CO)NC(=O)[C@H](CC(=O)O)NC(=O)[C@H](CC(C)C)NC(=O)[C@H](Cc1ccc(O)cc1)NC(=O)[C@H](CCCCN)NC(=O)[C@H](CO)NC(=O)[C@H](Cc1ccc(O)cc1)NC(=O)[C@H](CC(=O)O)NC(=O)[C@H](CO)NC(=O)[C@@H](NC(=O)[C@H](Cc1ccccc1)NC(=O)[C@@H](NC(=O)CNC(=O)[C@H](CCC(N)=O)NC(=O)C(C)(C)NC(=O)[C@@H](N)Cc1c[nH]cn1)[C@@H](C)O)[C@@H](C)O)C(=O)N[C@@H](C)C(=O)N[C@@H](C)C(=O)N[C@@H](CCCNC(=N)N)C(=O)N[C@@H](CC(=O)O)C(=O)N[C@@H](Cc1ccccc1)C(=O)N[C@H](C(=O)N[C@@H](C)C(=O)N[C@@H](Cc1c[nH]c2ccccc12)C(=O)N[C@@H](CC(C)C)C(=O)N[C@@H](CC(C)C)C(=O)N[C@@H](CCCNC(=N)N)C(=O)N[C@@H](C)C(N)=O)C(C)C)C(=O)O [Compound 9] (H-H[Aib]QGTFTSDYSKYLDSK([γGlu-Palmitoyl])AARDFVAWLLRA-NH2)	2.4 h		
CCCCCCCCCCCCCCCC(=O)N[C@@H](CCC(=O)NCCCC[C@H](NC(=O)[C@H](CO)NC(=O)[C@H](CC(=O)O)NC(=O)[C@H](CC(C)C)NC(=O)[C@H](Cc1ccc(O)cc1)NC(=O)[C@H](CCCCN)NC(=O)[C@H](CO)NC(=O)[C@H](Cc1ccc(O)cc1)NC(=O)[C@H](CC(=O)O)NC(=O)[C@H](CO)NC(=O)[C@@H](NC(=O)[C@H](Cc1ccccc1)NC(=O)[C@@H](NC(=O)CNC(=O)[C@H](CCC(N)=O)NC(=O)[C@H](CO)NC(=O)[C@@H](N)Cc1c[nH]cn1)[C@@H](C)O)[C@@H](C)O)C(=O)N[C@@H](C)C(=O)N[C@@H](C)C(=O)N[C@@H](Cc1c[nH]cn1)C(=O)N[C@@H](CC(=O)O)C(=O)N[C@@H](Cc1ccccc1)C(=O)N[C@H](C(=O)N[C@@H](CCC(=O)O)C(=O)N[C@@H](Cc1c[nH]c2ccccc12)C(=O)N[C@@H](CC(C)C)C(=O)N[C@@H](CC(C)C)C(=O)N[C@@H](CCCNC(=N)N)C(=O)N[C@@H](C)C(N)=O)C(C)C)C(=O)O [Compound 3] (H-HSQGTFTSDYSKYLDSK([γGlu-Palmitoyl])AAHDFVEWLLRA-NH2)			significantly decreased body weight gain at the high dose
CCCCCCCCCCCCCCCC(=O)N[C@@H](CCC(=O)NCCCC[C@H](NC(=O)[C@H](CO)NC(=O)[C@H](CC(=O)O)NC(=O)[C@H](CC(C)C)NC(=O)[C@H](Cc1ccc(O)cc1)NC(=O)[C@H](CCCCN)NC(=O)[C@H](CO)NC(=O)[C@H](Cc1ccc(O)cc1)NC(=O)[C@H](CC(=O)O)NC(=O)[C@H](CO)NC(=O)[C@@H](NC(=O)[C@H](Cc1ccccc1)NC(=O)[C@@H](NC(=O)CNC(=O)[C@H](CCC(N)=O)NC(=O)C(C)(C)NC(=O)[C@@H](N)Cc1c[nH]cn1)[C@@H](C)O)[C@@H](C)O)C(=O)N[C@@H](C)C(=O)N[C@@H](C)C(=O)N[C@@H](Cc1c[nH]cn1)C(=O)N[C@@H](CC(=O)O)C(=O)N[C@@H](Cc1ccccc1)C(=O)N[C@H](C(=O)N[C@H]1CCC(=O)NCCCC[C@@H](C(=O)N[C@@H](C)C(N)=O)NC(=O)[C@H](CC(C)C)NC(=O)[C@H](CC(C)C)NC(=O)[C@H](Cc2c[nH]c3ccccc23)NC1=O)C(C)C)C(=O)O [Compound 13] (H-H[Aib]QGTFTSDYSKYLDSK([γGlu-Palmitoyl])AAHDFVEWLLKA-NH2; lactam 24-28)	6.4 h		

Now from value to compound, other results behind:

half-life [2]	SMILES	body weight gain, low dose ([1]; 0.5 nmol/kg b.i.d. s.c.)	body weight gain, high dose [1]
4.8 h	CCCCCCCCCCCCCCCC(=O)N[C@@H](CCC(=O)NCCCC[C@H](NC(=O)[C@H](CC(C)C)NC(=O)[C@H](CC(C)C)NC(=O)[C@H](Cc1c[nH]c2ccccc12)NC(=O)[C@H](CCC(=O)O)NC(=O)[C@@H](NC(=O)[C@H](Cc1ccccc1)NC(=O)[C@H](CC(=O)O)NC(=O)[C@H](Cc1c[nH]cn1)NC(=O)[C@H](C)NC(=O)[C@H](C)NC(=O)[C@H](CCCCN)NC(=O)[C@H](CO)NC(=O)[C@H](CC(=O)O)NC(=O)[C@H](CC(C)C)NC(=O)[C@H](Cc1ccc(O)cc1)NC(=O)[C@H](CCCCN)NC(=O)[C@H](CO)NC(=O)[C@H](Cc1ccc(O)cc1)NC(=O)[C@H](CC(=O)O)NC(=O)[C@H](CO)NC(=O)[C@@H](NC(=O)[C@H](Cc1ccccc1)NC(=O)[C@@H](NC(=O)CNC(=O)[C@H](CCC(N)=O)NC(=O)[C@H](CO)NC(=O)[C@@H](N)Cc1c[nH]cn1)[C@@H](C)O)[C@@H](C)O)C(C)C)C(=O)N[C@@H](C)C(N)=O)C(=O)O [Compound 6] (H-HSQGTFTSDYSKYLDSKAAHDFVEWLLK([γGlu-Palmitoyl])A-NH2)	significantly decreased body weight gain	only at the low dose
5.3 h	CCCCCCCCCCCCCCCC(=O)N[C@@H](CCC(=O)NCCCC[C@H](NC(=O)[C@H](CC(C)C)NC(=O)[C@H](Cc1c[nH]c2ccccc12)NC(=O)[C@H](CCC(=O)O)NC(=O)[C@@H](NC(=O)[C@H](Cc1ccccc1)NC(=O)[C@H](CC(=O)O)NC(=O)[C@H](Cc1c[nH]cn1)NC(=O)[C@H](C)NC(=O)[C@H](C)NC(=O)[C@H](CCCCN)NC(=O)[C@H](CO)NC(=O)[C@H](CC(=O)O)NC(=O)[C@H](CC(C)C)NC(=O)[C@H](Cc1ccc(O)cc1)NC(=O)[C@H](CCCCN)NC(=O)[C@H](CO)NC(=O)[C@H](Cc1ccc(O)cc1)NC(=O)[C@H](CC(=O)O)NC(=O)[C@H](CO)NC(=O)[C@@H](NC(=O)[C@H](Cc1ccccc1)NC(=O)[C@@H](NC(=O)CNC(=O)[C@H](CCC(N)=O)NC(=O)[C@H](CO)NC(=O)[C@@H](N)Cc1c[nH]cn1)[C@@H](C)O)[C@@H](C)O)C(C)C)C(=O)N[C@@H](CCCNC(=N)N)C(=O)N[C@@H](C)C(N)=O)C(=O)O [Compound 5] (H-HSQGTFTSDYSKYLDSKAAHDFVEWLK([γGlu-Palmitoyl])RA-NH2)		
6 h	CCCCCCCCCCCCCCCC(=O)N[C@@H](CCC(=O)NCCCC[C@H](NC(=O)[C@H](CC(C)C)NC(=O)[C@H](CC(C)C)NC(=O)[C@H](Cc1c[nH]c2ccccc12)NC(=O)[C@H](CCC(=O)O)NC(=O)[C@@H](NC(=O)[C@H](Cc1ccccc1)NC(=O)[C@H](CC(=O)O)NC(=O)[C@H](Cc1c[nH]cn1)NC(=O)[C@H](C)NC(=O)[C@H](C)NC(=O)[C@H](CCCCN)NC(=O)[C@H](CO)NC(=O)[C@H](CC(=O)O)NC(=O)[C@H](CC(C)C)NC(=O)[C@H](Cc1ccc(O)cc1)NC(=O)[C@H](CCCCN)NC(=O)[C@H](CO)NC(=O)[C@H](Cc1ccc(O)cc1)NC(=O)[C@H](CC(=O)O)NC(=O)[C@H](CO)NC(=O)[C@@H](NC(=O)[C@H](Cc1ccccc1)NC(=O)[C@@H](NC(=O)CNC(=O)[C@H](CCC(N)=O)NC(=O)C(C)(C)NC(=O)[C@@H](N)Cc1c[nH]cn1)[C@@H](C)O)[C@@H](C)O)C(C)C)C(=O)N[C@@H](C)C(N)=O)C(=O)O [Compound 12] (H-H[Aib]QGTFTSDYSKYLDSKAAHDFVEWLLK([γGlu-Palmitoyl])A-NH2)		significantly decreased body weight gain at the high dose
5.8 h	CCCCCCCCCCCCCCCC(=O)N[C@@H](CCC(=O)NCCCC[C@H](NC(=O)[C@H](CC(=O)O)NC(=O)[C@H](CC(C)C)NC(=O)[C@H](Cc1ccc(O)cc1)NC(=O)[C@H](CCCCN)NC(=O)[C@H](CO)NC(=O)[C@H](Cc1ccc(O)cc1)NC(=O)[C@H](CC(=O)O)NC(=O)[C@H](CO)NC(=O)[C@@H](NC(=O)[C@H](Cc1ccccc1)NC(=O)[C@@H](NC(=O)CNC(=O)[C@H](CCC(N)=O)NC(=O)[C@H](CO)NC(=O)[C@@H](N)Cc1c[nH]cn1)[C@@H](C)O)[C@@H](C)O)C(=O)N[C@@H](CCCCN)C(=O)N[C@@H](C)C(=O)N[C@@H](C)C(=O)N[C@@H](Cc1c[nH]cn1)C(=O)N[C@@H](CC(=O)O)C(=O)N[C@@H](Cc1ccccc1)C(=O)N[C@H](C(=O)N[C@@H](CCC(=O)O)C(=O)N[C@@H](Cc1c[nH]c2ccccc12)C(=O)N[C@@H](CC(C)C)C(=O)N[C@@H](CC(C)C)C(=O)N[C@@H](CCCNC(=N)N)C(=O)N[C@@H](C)C(N)=O)C(C)C)C(=O)O [Compound 2] (H-HSQGTFTSDYSKYLDK([γGlu-Palmitoyl])KAAHDFVEWLLRA-NH2)		
2 h	CCCCCCCCCCCCCCCC(=O)N[C@@H](CCC(=O)NCCCC[C@H](NC(=O)[C@H](C)NC(=O)[C@H](C)NC(=O)[C@H](CCCCN)NC(=O)[C@H](CO)NC(=O)[C@H](CC(=O)O)NC(=O)[C@H](CC(C)C)NC(=O)[C@H](Cc1ccc(O)cc1)NC(=O)[C@H](CCCCN)NC(=O)[C@H](CO)NC(=O)[C@H](Cc1ccc(O)cc1)NC(=O)[C@H](CC(=O)O)NC(=O)[C@H](CO)NC(=O)[C@@H](NC(=O)[C@H](Cc1ccccc1)NC(=O)[C@@H](NC(=O)CNC(=O)[C@H](CCC(N)=O)NC(=O)[C@H](CO)NC(=O)[C@@H](N)Cc1c[nH]cn1)[C@@H](C)O)[C@@H](C)O)C(=O)N[C@@H](CC(=O)O)C(=O)N[C@@H](Cc1ccccc1)C(=O)N[C@H](C(=O)N[C@@H](CCC(=O)O)C(=O)N[C@@H](Cc1c[nH]c2ccccc12)C(=O)N[C@@H](CC(C)C)C(=O)N[C@@H](CC(C)C)C(=O)N[C@@H](CCCNC(=N)N)C(=O)N[C@@H](C)C(N)=O)C(C)C)C(=O)O [Compound 4] (H-HSQGTFTSDYSKYLDSKAAK([γGlu-Palmitoyl])DFVEWLLRA-NH2)		
